Patent publication US20260159512A1, “BCAT2 INHIBITORS” (AGIOS PHARMACEUTICALS, INC., priority 2021, published 2026)
pIC50: −log10 of the molar value.

How the values were obtained:
Conditions in all cases: average where tested multiple times
hBCAT1 = target: T1, hBCAT1 (Homo sapiens, UniProt P54687); test: BCAT1 in vitro enzyme inhibition assay (resazurin/diaphorase-coupled fluorescence); assay type: biochemical
T1 sequence (P54687 1-386): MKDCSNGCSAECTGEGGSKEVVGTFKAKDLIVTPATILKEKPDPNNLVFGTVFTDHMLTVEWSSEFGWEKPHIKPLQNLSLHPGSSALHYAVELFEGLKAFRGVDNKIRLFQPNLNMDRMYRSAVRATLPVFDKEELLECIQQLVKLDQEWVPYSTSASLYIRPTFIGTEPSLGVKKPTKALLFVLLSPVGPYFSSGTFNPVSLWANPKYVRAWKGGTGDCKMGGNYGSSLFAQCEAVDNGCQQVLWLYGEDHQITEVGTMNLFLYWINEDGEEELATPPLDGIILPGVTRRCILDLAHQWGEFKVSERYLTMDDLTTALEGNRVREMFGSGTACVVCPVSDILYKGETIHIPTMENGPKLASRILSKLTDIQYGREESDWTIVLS
Procedure, shortened: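 Human BCAT1 activity read by resazurin/diaphorase-coupled fluorescence. Compounds added from 50× DMSO stocks at 1:50, giving 10-point 3-fold titrations from 100 μM top final concentration. Run in technical duplicate; repeat tests averaged.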

BCAT2 [1] = target: T2, BCAT2 (Homo sapiens, UniProt O15382); test: BCAT2 in vitro cell inhibition using engineered A549 cells (KMV cell assay, 13C6-KMV by LC-MS/MS); assay type: cell-based; design: The result was an engineered A549 cell line that expressed endogenous BCAT2; endogenous in cells; host or cells: A549 cells with MUT and BCAT1 knocked out by CRISPR/CAS9
T2 sequence (O15382 28-392): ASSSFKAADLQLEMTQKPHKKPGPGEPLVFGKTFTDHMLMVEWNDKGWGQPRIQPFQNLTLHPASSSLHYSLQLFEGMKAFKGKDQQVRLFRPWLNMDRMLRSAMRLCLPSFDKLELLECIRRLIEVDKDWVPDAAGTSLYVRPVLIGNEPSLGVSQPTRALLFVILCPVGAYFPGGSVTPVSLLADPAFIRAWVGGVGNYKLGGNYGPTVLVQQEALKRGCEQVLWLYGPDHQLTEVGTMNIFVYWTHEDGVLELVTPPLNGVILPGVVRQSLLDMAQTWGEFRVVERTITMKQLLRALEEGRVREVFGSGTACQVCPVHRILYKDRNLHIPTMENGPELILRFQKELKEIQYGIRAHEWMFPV

BCAT2 [2] = target: T2, BCAT2; test: BCAT2 in vitro enzyme inhibition assay (resazurin/diaphorase-coupled fluorescence); assay type: biochemical
Procedure, shortened: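 Coupled fluorescence readout: glutamate formed from L-leucine/α-ketoglutarate transamination drives GDH/NAD/diaphorase reduction of resazurin (Ex 540/Em 590). Human BCAT2 was first exposed 1 h at room temperature to compound, top final 100 μM in 3-fold, 10-point series; substrate reaction ran 1 h before SDS quench, in technical duplicate with DMSO max and enzyme-free min controls.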

Structure (SMILES)	pIC50 (hBCAT1)	pIC50 (BCAT2 [1])	pIC50 (BCAT2 [2])
O=C(NC1CCCC(n2c(-c3ncccc3F)nc3cnc(-c4nnco4)cc32)C1)c1ccc(Br)s1 (stereo not drawn) [Example 2, 5-bromo-N-(3-(2-(3-fluoropyridin-2-yl)-6-(1,3,4-oxadiazol-2-yl)-1H-imidazo[4,5-c]pyridin-1-yl)cyclohexyl)thiophene-2-carboxamide]	6.00 to 6.30	6.30 to 7.00	≥ 7.00
CN1CC(NC(=O)c2ccc(Br)s2)CC(n2c(-c3ccccc3F)nc3cnc(-c4ncco4)cc32)C1 (stereo not drawn) [Example 117, 5-bromo-N-(5-(2-(2-fluorophenyl)-6-(oxazol-2-yl)-1H-imidazo[4,5-c]pyridin-1-yl)-1-methylpiperidin-3-yl)thiophene-2-carboxamide]	6.00 to 6.30	≥ 7.00	≥ 7.00
CC(O)CN1CC(NC(=O)c2ncc(C(F)F)s2)CC(n2c(-c3ncccc3F)nc3cnc(-n4nccn4)cc32)C1 (stereo not drawn) [Example 129, 5-(difluoromethyl)-N-(5-(2-(3-fluoropyridin-2-yl)-6-(2H-1,2,3-triazol-2-yl)-1H-imidazo[4,5-c]pyridin-1-yl)-1-(2-hydroxypropyl)piperidin-3-yl)thiazole-2-carboxamide]	< 5.30	< 6.00	≥ 7.00
O=C(N[C@H]1CCC[C@@H](n2c(-c3ccccc3F)nc3cnc(N4CCC(O)C4)cc32)C1)c1ncc(Cl)s1 (stereo partly drawn) [Example 199, 5-chloro-N-((1S,3R)-3-(2-(2-fluorophenyl)-6-(3-hydroxypyrrolidin-1-yl)-1H-imidazo[4,5-c]pyridin-1-yl)cyclohexyl)thiazole-2-carboxamide]	< 5.30	< 6.00	≥ 7.00
Cc1cccnc1-c1cc2c(cn1)nc(-c1ccccc1F)n2[C@@H]1CCC[C@H](NC(=O)c2ncc(Cl)s2)C1 [Example 161, 5-chloro-N-((1S,3R)-3-(2-(2-fluorophenyl)-6-(3-methylpyridin-2-yl)-1H-imidazo[4,5-c]pyridin-1-yl)cyclohexyl)thiazole-2-carboxamide]	5.30 to 6.00	6.30 to 7.00	≥ 7.00
CC(C)Cc1nc2cnc(-n3nccn3)cc2n1[C@@H]1CCC[C@H](NC(=O)c2ncc(Cl)s2)[C@H]1O [Example 227, 5-chloro-N-((1S,2R,3R)-2-hydroxy-3-(2-isobutyl-6-(2H-1,2,3-triazol-2-yl)-1H-imidazo[4,5-c]pyridin-1-yl)cyclohexyl)thiazole-2-carboxamide]	> 6.30	≥ 7.00	≥ 7.00
CO[C@H]1C[C@H](NC(=O)c2ncc(Cl)s2)C[C@H](n2c(-c3ccccc3F)nc3cnc(N4CCC[C@H]4CO)cc32)C1 [Example 429, 5-chloro-N-((1R,3S,5S)-3-(2-(2-fluorophenyl)-6-((S)-2-(hydroxymethyl)pyrrolidin-1-yl)-1H-imidazo[4,5-c]pyridin-1-yl)-5-methoxycyclohexyl)thiazole-2-carboxamide]	6.00 to 6.30	≥ 7.00	≥ 7.00
O=C(N[C@H]1CCC[C@@H](n2c(CC3(C(F)(F)F)CC3)nc3cnc(-c4nc[nH]n4)cc32)C1)c1ncc(Cl)s1 [Example 325, N-((1S,3R)-3-(6-(1H-1,2,4-triazol-3-yl)-2-((1-(trifluoromethyl)cyclopropyl)methyl)-1H-imidazo[4,5-c]pyridin-1-yl)cyclohexyl)-5-chlorothiazole-2-carboxamide]	> 6.30	≥ 7.00	≥ 7.00
C#Cc1cnc(C(=O)N[C@H]2CCC[C@@H](n3c(-c4ccccn4)nc4cnc(-n5nccn5)cc43)C2)s1 [Example 20, 5-ethynyl-N-((1S,3R)-3-(2-(pyridin-2-yl)-6-(2H-1,2,3-triazol-2-yl)-1H-imidazo[4,5-c]pyridin-1-yl)cyclohexyl)thiazole-2-carboxamide]	> 6.30	≥ 7.00	≥ 7.00
O=C(NC1COCC(n2c(-c3ccccc3F)nc3cnc(-n4nccn4)cc32)C1)c1ncc(C(F)F)s1 (single isomer, unassigned) [Example 143, 5-(difluoromethyl)-N-(5-(2-(2-fluorophenyl)-6-(2H-1,2,3-triazol-2-yl)-1H-imidazo[4,5-c]pyridin-1-yl)tetrahydro-2H-pyran-3-yl)thiazole-2-carboxamide]	< 5.30	6.30 to 7.00	6.30 to 7.00
N#Cc1ccccc1-c1nc2cnc(-c3nc[nH]n3)cc2n1[C@@H]1CCC[C@H](NC(=O)c2ccc(Cl)s2)C1 [Example 356, 5-chloro-N-((1S,3R)-3-(2-(2-cyanophenyl)-6-(1H-1,2,4-triazol-3-yl)-1H-imidazo[4,5-c]pyridin-1-yl)cyclohexyl)thiophene-2-carboxamide]	6.00 to 6.30	≥ 7.00	≥ 7.00
CC(C)Cc1nc2cnc(-c3nc[nH]n3)cc2n1[C@@H]1CCC[C@H](NC(=O)c2ccc(C(F)(F)F)s2)C1 [Example 342, N-((1S,3R)-3-(2-isobutyl-6-(1H-1,2,4-triazol-3-yl)-1H-imidazo[4,5-c]pyridin-1-yl)cyclohexyl)-5-(trifluoromethyl)thiophene-2-carboxamide]	> 6.30	≥ 7.00	≥ 7.00

Second part, the compound after the results:

pIC50 (hBCAT1)	pIC50 (BCAT2 [1])	pIC50 (BCAT2 [2])	Structure (SMILES)
> 6.30	≥ 7.00	≥ 7.00	CO[C@H]1C[C@H](NC(=O)c2ccc(Cl)s2)C[C@H](n2c(CC(C)C)nc3cnc(-c4ncccn4)cc32)C1 (single isomer, unassigned) [Example 437]
> 6.30	≥ 7.00	≥ 7.00	O=C(N[C@H]1CCC[C@@H](n2c(-c3ccccc3F)nc3cnc(-c4ncccn4)cc32)[C@@H]1O)c1ncc(Cl)s1 [Example 245, 5-chloro-N-((1S,2R,3R)-3-(2-(2-fluorophenyl)-6-(pyrimidin-2-yl)-1H-imidazo[4,5-c]pyridin-1-yl)-2-hydroxycyclohexyl)thiazole-2-carboxamide]
> 6.30	6.30 to 7.00	≥ 7.00	CC(C)Cc1nc2cnc(-c3ccn(C)n3)cc2n1[C@@H]1CCC[C@H](NC(=O)c2ncc(Cl)s2)[C@H]1O [Example 223, 5-chloro-N-((1S,2R,3R)-2-hydroxy-3-(2-isobutyl-6-(1-methyl-1H-pyrazol-3-yl)-1H-imidazo[4,5-c]pyridin-1-yl)cyclohexyl)thiazole-2-carboxamide]
> 6.30	≥ 7.00	≥ 7.00	CO[C@@H]1C[C@H](NC(=O)c2ncc(Cl)s2)C[C@H](n2c(CC(C)C)nc3cnc(-n4nccn4)cc32)C1 (single isomer, unassigned) [Example 439]
> 6.30	6.30 to 7.00	6.30 to 7.00	O=C(N[C@H]1CCC[C@@H](n2c(-c3ccccc3F)nc3cnc(O[C@H]4CCOC4)cc32)C1)c1ncc(Cl)s1 [Example 267, 5-chloro-N-((1S,3R)-3-(2-(2-fluorophenyl)-6-(((S)-tetrahydrofuran-3-yl)oxy)-1H-imidazo[4,5-c]pyridin-1-yl)cyclohexyl)thiazole-2-carboxamide]
> 6.30	≥ 7.00	≥ 7.00	N#Cc1cnc(C(=O)N[C@H]2CCC[C@@H](n3c(-c4ncccc4F)nc4cnc(-n5nccn5)cc43)C2)s1 [Example 66, 5-cyano-N-((1S,3R)-3-(2-(3-fluoropyridin-2-yl)-6-(2H-1,2,3-triazol-2-yl)-1H-imidazo[4,5-c]pyridin-1-yl)cyclohexyl)thiazole-2-carboxamide]
